Each structure is given as a SMILES string. Several values for one entry are separate records, joined by “and”; a condition that tells them apart may be missing. Equal values may be shown once.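 96-well plates; 48 h exposure; 5 concentrations. Endpoints by linear interpolation between flanking doses. Not reached: highest tested concentration assigned. GI50 is the concentration that inhibits growth by half. At the TGI there is no net growth.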

Among the data in PubChem BioAssay (NCI) are GI50 and TGI values, retold here.

Test systems include DU-145 prostate; MCF7 breast; MDA-MB-435; BT-549 breast.
Holding throughout (test): growth of human tumour cells (NCI), 48 h

For the compound `CC(C)c1ccc(C(C)C(=O)N(CC2=C(C(C)c3ccccn3)c3ccccc3C2)C(C)C)cc1` (configuration not stated), the results for the GI50 with DU-145 prostate, with MCF7 breast and with MDA-MB-435 were 5.29 µM, 3.23 µM and 3.73 µM, respectively. The TGI with DU-145 prostate came out at 18 µM; in the assay on MCF7 breast, 11.4 µM; in the assay on MDA-MB-435, 55.6 µM.

As for `CC1=C(C(=O)Nc2ccc(F)c(Cl)c2)C(c2ccc(Cl)cc2)NC(=O)N1` (configuration not stated), the GI50 is 15.6 µM in the assay with DU-145 prostate, 18.4 µM in the assay with MCF7 breast, 22.8 µM in the assay with MDA-MB-435 and 14.6 µM in the assay on BT-549 breast. The TGI was 37 µM in the assay with DU-145 prostate, 44.9 µM in the assay on MCF7 breast, 56.4 µM with MDA-MB-435 and 32.6 µM in the assay on BT-549 breast.

`NC1CCC(Nc2nc(NCc3ccc(-c4ccco4)nc3)c3ncn(C4CCCC4)c3n2)CC1` (configuration not stated): the GI50 in the assay with DU-145 prostate is 0.0426 µM; with MCF7 breast, 0.0267 µM; in the assay with MDA-MB-435, 0.0225 µM; in the assay on BT-549 breast it was 0.0264 µM. In addition, the TGI in the assay with DU-145 prostate came out at 12.2 µM; in the assay with MCF7 breast, 1.22 µM; with MDA-MB-435, 1.24 µM; in the assay with BT-549 breast, 0.0746 µM.

Take `CSc1ccccc1C#C/C=C\C#Cc1ccccc1N1CCCC1=O`: the GI50 in the assay with DU-145 prostate is greater than 22.5 µM. Moreover, the TGI in the assay with DU-145 prostate was greater than 50 µM; in the assay with MCF7 breast, greater than 50 µM; in the assay with MDA-MB-435 it was greater than 13.9 µM; in the assay on BT-549 breast it was greater than 45.4 µM.

As for `O=C(NCCNc1nccc(-c2c(-c3cccc(O)c3)nc3sccn23)n1)c1ccccc1O`, the GI50 was 5.23 µM in the assay with DU-145 prostate, 3.27 µM in the assay on MCF7 breast, 0.491 µM with MDA-MB-435 and 4.74 µM in the assay on BT-549 breast. Further, the TGI was determined as 35.5 µM in the assay on DU-145 prostate, 19.9 µM in the assay on MCF7 breast, 12.1 µM with MDA-MB-435 and 34.9 µM in the assay on BT-549 breast.

As to `COc1cc(C(=O)/C=C/c2sc(Cl)nc2Cl)cc(OC)c1OC`, the GI50 is 1.8 µM in the assay on DU-145 prostate, 1.78 µM in the assay on MCF7 breast, 2 µM in the assay with MDA-MB-435 and 1.87 µM in the assay with BT-549 breast. Further, the TGI came out at 3.21 µM with DU-145 prostate, 3.68 µM in the assay with MCF7 breast, 4.11 µM in the assay with MDA-MB-435 and 3.6 µM with BT-549 breast.

In the case of `Fc1ccc(Nc2ncnc3ccc(-c4cnc5[nH]ccc5c4)cc23)cc1Cl`, the GI50 in the assay on DU-145 prostate is 4.58 µM; in the assay with MCF7 breast, 0.335 µM; in the assay on MDA-MB-435, 8.66 µM; with BT-549 breast, 3.11 µM. For the same compound, the TGI in the assay on DU-145 prostate is greater than 93.3 µM; in the assay with MCF7 breast, greater than 38 µM; in the assay on MDA-MB-435, greater than 80.1 µM; with BT-549 breast, greater than 27.9 µM.

`O=C(Nc1ccc(I)cc1)c1cc([N+](=O)[O-])ccc1O`: the GI50 in the assay with DU-145 prostate was 17 µM; with MCF7 breast it was 3.93 µM; in the assay with MDA-MB-435, 6.91 µM; with BT-549 breast, 5.36 µM. Moreover, the TGI is greater than 100 µM in the assay on DU-145 prostate, greater than 100 µM with MCF7 breast, greater than 100 µM with MDA-MB-435 and 27.1 µM in the assay with BT-549 breast.

Regarding `COc1cc2nc(C)nc(N[C@H](C)c3cc(N)cc(C(F)(F)F)c3)c2cc1O[C@H]1CCOC1`, the GI50 was 16.2 µM in the assay with DU-145 prostate, 12.9 µM with MCF7 breast, 16.8 µM in the assay with MDA-MB-435 and 11.5 µM in the assay on BT-549 breast. Further, the TGI in the assay on DU-145 prostate worked out at 30.5 µM; in the assay on MCF7 breast it was 31.3 µM; with MDA-MB-435, 30.5 µM; with BT-549 breast, 24.2 µM.

In the case of `CN(C)CCCNC1=C(Cl)C(=O)c2ccccc2C1=O`, the GI50 was 1.92 µM with DU-145 prostate, 1.61 µM in the assay with MCF7 breast, 1.9 µM in the assay on MDA-MB-435 and 2.14 µM in the assay with BT-549 breast. The TGI with DU-145 prostate came to 3.64 µM; in the assay with MCF7 breast, 3.53 µM; with MDA-MB-435 it was 3.64 µM; in the assay with BT-549 breast, 4.96 µM.

As for `CNC(=O)c1ccccc1Nc1nc(Nc2ccc(N3CCOCC3)cc2OC)ncc1Cl`, the GI50 in the assay on DU-145 prostate was 0.768 µM; with MCF7 breast, 0.133 µM; in the assay with MDA-MB-435, 0.629 µM; in the assay with BT-549 breast it was 2.58 µM. Further, the TGI in the assay with DU-145 prostate is greater than 39.2 µM; in the assay with MCF7 breast it was greater than 50.7 µM; in the assay on MDA-MB-435, greater than 66.4 µM; with BT-549 breast, greater than 39.1 µM.

Consider `C=C(CNCCO)[C@@H]1CC[C@]2(CO)CC[C@]3(C)[C@H](CC[C@@H]4[C@@]5(C)CCC(N)C(C)(C)[C@@H]5CC[C@]43C)[C@@H]12` (some centres not stated), for which the GI50 was 5.1 µM in the assay with DU-145 prostate, 1.77 µM in the assay with MCF7 breast, 1.72 µM in the assay on MDA-MB-435 and 2.07 µM with BT-549 breast. In addition, the TGI in the assay with DU-145 prostate was 16.6 µM; with MCF7 breast, 3.57 µM; in the assay with MDA-MB-435 it was 3.3 µM; with BT-549 breast it was 4.9 µM.

With `C[C@@H](CS(C)(=O)=O)Nc1ncc2cc(Oc3ccc(F)cc3F)c(=O)n(C)c2n1`, the GI50 in the assay on DU-145 prostate, in the assay with MCF7 breast, with MDA-MB-435 and with BT-549 breast was greater than 25 µM in each case. For the same compound, the TGI in the assay with DU-145 prostate, in the assay on MCF7 breast, in the assay with MDA-MB-435 and in the assay on BT-549 breast was greater than 25 µM throughout.

For the compound `COC(=O)[C@@H](C)C[C@H](Cc1ccc(F)cc1)NC(=O)c1csc([C@@H](C[C@H](C(C)C)N(C)C(=O)[C@@H](NC(=O)[C@H]2CCCCN2C)C(C)C)OC(C)=O)n1`, in the assay on DU-145 prostate, the GI50 was 0.000984 µM and 0.00525 µM. In addition, the TGI in the assay with DU-145 prostate was 0.0214 µM; in the assay with MCF7 breast, greater than 16.7 µM; in the assay with MDA-MB-435, 0.00047 µM and 0.00417 µM; in the assay with BT-549 breast it was 0.0568 µM and 0.261 µM.

For the compound `CC[C@@]12CCCN3CC[C@]4(c5cccc(OC)c5N(C(C)=O)[C@@H]4CC1)[C@H]32`, the TGI with DU-145 prostate, with MCF7 breast, in the assay with MDA-MB-435 and in the assay with BT-549 breast was greater than 100 µM throughout.

Regarding `NC(CSC(c1ccccc1)(c1ccccc1)c1ccc2c(c1)OCO2)C(=O)O` (configuration not stated), the GI50 is 2.33 µM in the assay with DU-145 prostate, 0.298 µM in the assay on MCF7 breast and 0.559 µM in the assay on BT-549 breast. Besides, the TGI was determined as 6.88 µM in the assay on DU-145 prostate, 40.2 µM in the assay on MCF7 breast and 75.9 µM in the assay with BT-549 breast.

With `c1cc2c(cc1NC1=NCCO1)CCC2`, the TGI in the assay on MCF7 breast and with MDA-MB-435 was greater than 10 µM in each case.

Regarding `O=C1/C(=C/c2ccc([N+](=O)[O-])cc2)COc2ccc(O)c(O)c21`, the GI50 in the assay with DU-145 prostate is 1.46 µM; with MDA-MB-435 it was 1.58 µM; in the assay with BT-549 breast it was 1.44 µM. The figures for the TGI in the assay on DU-145 prostate, in the assay on MDA-MB-435 and in the assay on BT-549 breast were 2.85 µM, 3.08 µM and 3.19 µM, respectively.
